What was measured:
[1] = Determination of the protein affinity in the lysine model (HPTLC); details: 10 mg in 5 ml THF made up to 10 ml with lysine solution (200 mg/l water), 35° C., HPTLC detection at 254 nm and 366 nm; for reaction with lysine in a Maillard reaction / detectability of starting substance after 1 h: sample after 1 h
Method: In each case, 10 mg of the substances according to Example 1 and Example 2 are weighed out into a 10 ml volumetric flask and dissolved in 5 ml of tetrahydrofuran (THF). The volumetric flask is then made up to the mark with a lysine solution in distilled water. The concentration of the lysine solution is 200 mg/I of water. The solution is stirred in the volumetric flask at 35° C. for 24 h. Samples are taken after 1 h and after 24 h. 5 μl of each of these samples are pipetted onto the start zone of an HPTLC silica gel 60 […] plate (Merck Art. 1.05628) using a micropipette. For development of the HPTLC plate, the eluent consisting of THF/heptane in the ratio 75/25 containing 0.1 vol % of formic acid is used. After development, detection is carried out at 254 nm and 366 nm in a CAMAG ATS4, and the Rf values are determined.

[2] = Investigation in the Liquidskin model (L*-a*-b* values, UV/VIS spectrometer); details: RT, 3 hrs
Method: 1 mmol of the substance according to Example 1 (2-methyl-4-oxo-4H-pyran-3-yl 2-(4-dibutylamino-2-hydroxybenzoyl)benzoate) is dissolved in 94 ml of ethylene glycol and 6 ml of water (potassium hydrogenphthalate-buffered, pH=4) with 1 mmol of DL-lysine and stirred at RT for 3 hrs. (=Liquidskin model). The L*-a*-b* values of this solution are subsequently measured using a UV/VIS spectrometer (Varian Cary-100) and compared with the starting values.

[3] = 1 mmol substance + 1 mmol DL-lysine in 94 ml ethylene glycol and 6 ml water (pH=4), compared with starting values

Row | Compound | reaction with lysine in a Maillard reaction / detectability of starting substance after 1 h [1] | delta L* [2, 3] | delta a* [2, 3] | delta b* [2, 3] | colour change of lysine ([2]; Liquidskin model) | reaction with lysine in a Maillard reaction / detectability of starting substance after 24 h ([1]; sample after 24 h)
1 | CCCCN(CCCC)c1ccc(C(=O)c2ccccc2C(=O)Oc2c(C)occc2=O)c(O)c1 [Example 1, 2-methyl-4-oxo-4H-pyran-3-yl 2-(4-dibutylamino-2-hydroxybenzoyl)benzoate] | completely reacted with lysine | −4.07 | −2.75 | +7.83 | exhibits a colour change of lysine | –
2 | COc1ccc(/C=C/C(=O)Oc2c(C)occc2=O)cc1 [Example 2, 2-methyl-4-oxo-4H-pyran-3-yl 2-(E)-3-(4-methoxyphenyl)acrylate] | can still be detected | – | – | – | – | reaction is complete

— patent US20150306002A1, “3-HYDROXY-4-OXO-4H-PYRAN- OR 3-HYDROXY-4-OXO-1,4-DIHYDROPYRIDINE DERIVATIVES AS PROTEIN-ADHESIVE ACTIVE SUBSTANCES” (MERCK PATENT GMBH, priority 2012, published 2015)
